The source of these data is the OligoGym collection.

Oligonucleotides are given in HELM: sugar(base)linkage, 5' to 3'; d 2'-deoxyribose, r ribose, m 2'-O-methylribose, p phosphate. ss, as = sense and antisense strand
Also: test concentration or dose not given here.

The target in the data set is TMEM63B. Nature of the data set: reporter assay of Huesken 2005. The note with it: siRNA. For orientation: In a reporter assay the amount or activity of a reporter protein is the signal.
“RNA1{r(G)p.r(A)p.r(G)p.r(A)p.r(G)p.r(G)p.r(C)p.r(G)p.r(C)p.r(A)p.r(A)p.r(C)p.r(G)p.r(U)p.r(G)p.r(A)p.r(A)p.r(G)p.r(C)p.d(T)p.d(T)}|RNA2{r(G)p.r(C)p.r(U)p.r(U)p.r(C)p.r(A)p.r(C)p.r(G)p.r(U)p.r(U)p.r(G)p.r(C)p.r(G)p.r(C)p.r(C)p.r(U)p.r(C)p.r(U)p.r(C)p.d(G)p.d(G)}$$$RNA1{StrandType:ss}|RNA2{StrandType:as}$” gave a normalised inhibition (eCFP-eYFP dual reporter) of 56.8%. The figure for “RNA1{r(G)p.r(U)p.r(G)p.r(A)p.r(A)p.r(U)p.r(G)p.r(A)p.r(G)p.r(A)p.r(A)p.r(G)p.r(C)p.r(C)p.r(U)p.r(C)p.r(U)p.r(U)p.r(G)p.d(T)p.d(T)}|RNA2{r(C)p.r(A)p.r(A)p.r(G)p.r(A)p.r(G)p.r(G)p.r(C)p.r(U)p.r(U)p.r(C)p.r(U)p.r(C)p.r(A)p.r(U)p.r(U)p.r(C)p.r(A)p.r(C)p.d(C)p.d(T)}$$$RNA1{StrandType:ss}|RNA2{StrandType:as}$” is 69.3%.

On to “RNA1{r(U)p.r(G)p.r(A)p.r(A)p.r(U)p.r(G)p.r(A)p.r(G)p.r(A)p.r(A)p.r(G)p.r(C)p.r(C)p.r(U)p.r(C)p.r(U)p.r(U)p.r(G)p.r(G)p.d(T)p.d(T)}|RNA2{r(C)p.r(C)p.r(A)p.r(A)p.r(G)p.r(A)p.r(G)p.r(G)p.r(C)p.r(U)p.r(U)p.r(C)p.r(U)p.r(C)p.r(A)p.r(U)p.r(U)p.r(C)p.r(A)p.d(C)p.d(C)}$$$RNA1{StrandType:ss}|RNA2{StrandType:as}$”, for which the normalised inhibition (eCFP-eYFP dual reporter) was 39.5%. The figure for “RNA1{r(C)p.r(U)p.r(C)p.r(A)p.r(C)p.r(G)p.r(G)p.r(A)p.r(C)p.r(A)p.r(C)p.r(A)p.r(G)p.r(A)p.r(C)p.r(U)p.r(U)p.r(C)p.r(C)p.d(T)p.d(T)}|RNA2{r(G)p.r(G)p.r(A)p.r(A)p.r(G)p.r(U)p.r(C)p.r(U)p.r(G)p.r(U)p.r(G)p.r(U)p.r(C)p.r(C)p.r(G)p.r(U)p.r(G)p.r(A)p.r(G)p.d(G)p.d(G)}$$$RNA1{StrandType:ss}|RNA2{StrandType:as}$” is 61.7%. The figure for “RNA1{r(C)p.r(A)p.r(C)p.r(C)p.r(A)p.r(C)p.r(U)p.r(C)p.r(C)p.r(A)p.r(G)p.r(C)p.r(C)p.r(A)p.r(U)p.r(C)p.r(A)p.r(U)p.r(C)p.d(T)p.d(T)}|RNA2{r(G)p.r(A)p.r(U)p.r(G)p.r(A)p.r(U)p.r(G)p.r(G)p.r(C)p.r(U)p.r(G)p.r(G)p.r(A)p.r(G)p.r(U)p.r(G)p.r(G)p.r(U)p.r(G)p.d(A)p.d(G)}$$$RNA1{StrandType:ss}|RNA2{StrandType:as}$” is 70.2%; for “RNA1{r(C)p.r(G)p.r(G)p.r(C)p.r(C)p.r(G)p.r(C)p.r(C)p.r(G)p.r(A)p.r(G)p.r(A)p.r(G)p.r(G)p.r(C)p.r(G)p.r(C)p.r(A)p.r(A)p.d(T)p.d(T)}|RNA2{r(U)p.r(U)p.r(G)p.r(C)p.r(G)p.r(C)p.r(C)p.r(U)p.r(C)p.r(U)p.r(C)p.r(G)p.r(G)p.r(C)p.r(G)p.r(G)p.r(C)p.r(C)p.r(G)p.d(A)p.d(G)}$$$RNA1{StrandType:ss}|RNA2{StrandType:as}$” it is 72.9%; for “RNA1{r(G)p.r(C)p.r(G)p.r(A)p.r(A)p.r(A)p.r(U)p.r(A)p.r(C)p.r(A)p.r(U)p.r(C)p.r(G)p.r(C)p.r(U)p.r(C)p.r(A)p.r(G)p.r(G)p.d(T)p.d(T)}|RNA2{r(C)p.r(C)p.r(U)p.r(G)p.r(A)p.r(G)p.r(C)p.r(G)p.r(A)p.r(U)p.r(G)p.r(U)p.r(A)p.r(U)p.r(U)p.r(U)p.r(C)p.r(G)p.r(C)p.d(A)p.d(G)}$$$RNA1{StrandType:ss}|RNA2{StrandType:as}$” it is 40.2%.

With “RNA1{r(A)p.r(A)p.r(C)p.r(G)p.r(C)p.r(C)p.r(A)p.r(U)p.r(G)p.r(G)p.r(A)p.r(C)p.r(C)p.r(U)p.r(G)p.r(C)p.r(U)p.r(G)p.r(C)p.d(T)p.d(T)}|RNA2{r(G)p.r(C)p.r(A)p.r(G)p.r(C)p.r(A)p.r(G)p.r(G)p.r(U)p.r(C)p.r(C)p.r(A)p.r(U)p.r(G)p.r(G)p.r(C)p.r(G)p.r(U)p.r(U)p.d(G)p.d(C)}$$$RNA1{StrandType:ss}|RNA2{StrandType:as}$”, the normalised inhibition (eCFP-eYFP dual reporter) stood at 27.2%. Next, “RNA1{r(C)p.r(A)p.r(G)p.r(G)p.r(A)p.r(C)p.r(A)p.r(A)p.r(C)p.r(C)p.r(A)p.r(U)p.r(G)p.r(C)p.r(A)p.r(C)p.r(A)p.r(A)p.r(G)p.d(T)p.d(T)}|RNA2{r(C)p.r(U)p.r(U)p.r(G)p.r(U)p.r(G)p.r(C)p.r(A)p.r(U)p.r(G)p.r(G)p.r(U)p.r(U)p.r(G)p.r(U)p.r(C)p.r(C)p.r(U)p.r(G)p.d(T)p.d(T)}$$$RNA1{StrandType:ss}|RNA2{StrandType:as}$”: 61.5%. Next, “RNA1{r(G)p.r(A)p.r(G)p.r(G)p.r(C)p.r(G)p.r(C)p.r(A)p.r(A)p.r(C)p.r(G)p.r(U)p.r(G)p.r(A)p.r(A)p.r(G)p.r(C)p.r(G)p.r(G)p.d(T)p.d(T)}|RNA2{r(C)p.r(C)p.r(G)p.r(C)p.r(U)p.r(U)p.r(C)p.r(A)p.r(C)p.r(G)p.r(U)p.r(U)p.r(G)p.r(C)p.r(G)p.r(C)p.r(C)p.r(U)p.r(C)p.d(T)p.d(C)}$$$RNA1{StrandType:ss}|RNA2{StrandType:as}$”: 59.5%; “RNA1{r(U)p.r(G)p.r(C)p.r(U)p.r(G)p.r(C)p.r(C)p.r(U)p.r(G)p.r(U)p.r(C)p.r(A)p.r(A)p.r(C)p.r(U)p.r(U)p.r(C)p.r(U)p.r(C)p.d(T)p.d(T)}|RNA2{r(G)p.r(A)p.r(G)p.r(A)p.r(A)p.r(G)p.r(U)p.r(U)p.r(G)p.r(A)p.r(C)p.r(A)p.r(G)p.r(G)p.r(C)p.r(A)p.r(G)p.r(C)p.r(A)p.d(C)p.d(G)}$$$RNA1{StrandType:ss}|RNA2{StrandType:as}$”: 60.5%. Next, “RNA1{r(C)p.r(C)p.r(U)p.r(G)p.r(G)p.r(U)p.r(C)p.r(A)p.r(U)p.r(C)p.r(A)p.r(A)p.r(U)p.r(G)p.r(U)p.r(C)p.r(G)p.r(U)p.r(C)p.d(T)p.d(T)}|RNA2{r(G)p.r(A)p.r(C)p.r(G)p.r(A)p.r(C)p.r(A)p.r(U)p.r(U)p.r(G)p.r(A)p.r(U)p.r(G)p.r(A)p.r(C)p.r(C)p.r(A)p.r(G)p.r(G)p.d(C)p.d(A)}$$$RNA1{StrandType:ss}|RNA2{StrandType:as}$”: 60.4%; “RNA1{r(C)p.r(U)p.r(U)p.r(U)p.r(U)p.r(C)p.r(C)p.r(A)p.r(C)p.r(C)p.r(A)p.r(U)p.r(G)p.r(C)p.r(G)p.r(C)p.r(A)p.r(C)p.r(G)p.d(T)p.d(T)}|RNA2{r(C)p.r(G)p.r(U)p.r(G)p.r(C)p.r(G)p.r(C)p.r(A)p.r(U)p.r(G)p.r(G)p.r(U)p.r(G)p.r(G)p.r(A)p.r(A)p.r(A)p.r(A)p.r(G)p.d(A)p.d(A)}$$$RNA1{StrandType:ss}|RNA2{StrandType:as}$”: 0%; “RNA1{r(A)p.r(C)p.r(G)p.r(G)p.r(A)p.r(C)p.r(A)p.r(C)p.r(A)p.r(G)p.r(A)p.r(C)p.r(U)p.r(U)p.r(C)p.r(C)p.r(A)p.r(G)p.r(U)p.d(T)p.d(T)}|RNA2{r(A)p.r(C)p.r(U)p.r(G)p.r(G)p.r(A)p.r(A)p.r(G)p.r(U)p.r(C)p.r(U)p.r(G)p.r(U)p.r(G)p.r(U)p.r(C)p.r(C)p.r(G)p.r(U)p.d(G)p.d(A)}$$$RNA1{StrandType:ss}|RNA2{StrandType:as}$”: 85.7%. With “RNA1{r(U)p.r(C)p.r(C)p.r(U)p.r(A)p.r(G)p.r(C)p.r(U)p.r(C)p.r(C)p.r(C)p.r(A)p.r(C)p.r(G)p.r(U)p.r(C)p.r(U)p.r(A)p.r(U)p.d(T)p.d(T)}|RNA2{r(A)p.r(U)p.r(A)p.r(G)p.r(A)p.r(C)p.r(G)p.r(U)p.r(G)p.r(G)p.r(G)p.r(A)p.r(G)p.r(C)p.r(U)p.r(A)p.r(G)p.r(G)p.r(A)p.d(A)p.d(C)}$$$RNA1{StrandType:ss}|RNA2{StrandType:as}$”, the normalised inhibition (eCFP-eYFP dual reporter) is 79.7%. The figure for “RNA1{r(G)p.r(G)p.r(A)p.r(U)p.r(G)p.r(A)p.r(U)p.r(C)p.r(U)p.r(G)p.r(G)p.r(U)p.r(G)p.r(A)p.r(A)p.r(G)p.r(C)p.r(G)p.r(G)p.d(T)p.d(T)}|RNA2{r(C)p.r(C)p.r(G)p.r(C)p.r(U)p.r(U)p.r(C)p.r(A)p.r(C)p.r(C)p.r(A)p.r(G)p.r(A)p.r(U)p.r(C)p.r(A)p.r(U)p.r(C)p.r(C)p.d(T)p.d(C)}$$$RNA1{StrandType:ss}|RNA2{StrandType:as}$” is 63.9%; for “RNA1{r(G)p.r(U)p.r(A)p.r(U)p.r(C)p.r(U)p.r(G)p.r(C)p.r(U)p.r(G)p.r(C)p.r(U)p.r(C)p.r(A)p.r(C)p.r(C)p.r(G)p.r(U)p.r(C)p.d(T)p.d(T)}|RNA2{r(G)p.r(A)p.r(C)p.r(G)p.r(G)p.r(U)p.r(G)p.r(A)p.r(G)p.r(C)p.r(A)p.r(G)p.r(C)p.r(A)p.r(G)p.r(A)p.r(U)p.r(A)p.r(C)p.d(A)p.d(G)}$$$RNA1{StrandType:ss}|RNA2{StrandType:as}$” it is 65.4%.

Consider “RNA1{r(A)p.r(G)p.r(U)p.r(G)p.r(C)p.r(C)p.r(C)p.r(A)p.r(C)p.r(A)p.r(A)p.r(C)p.r(U)p.r(A)p.r(C)p.r(A)p.r(A)p.r(G)p.r(A)p.d(T)p.d(T)}|RNA2{r(U)p.r(C)p.r(U)p.r(U)p.r(G)p.r(U)p.r(A)p.r(G)p.r(U)p.r(U)p.r(G)p.r(U)p.r(G)p.r(G)p.r(G)p.r(C)p.r(A)p.r(C)p.r(U)p.d(G)p.d(A)}$$$RNA1{StrandType:ss}|RNA2{StrandType:as}$”, for which the normalised inhibition (eCFP-eYFP dual reporter) worked out at 81.7%.

In turn, “RNA1{r(C)p.r(C)p.r(A)p.r(C)p.r(U)p.r(C)p.r(C)p.r(A)p.r(G)p.r(C)p.r(C)p.r(A)p.r(U)p.r(C)p.r(A)p.r(U)p.r(C)p.r(A)p.r(U)p.d(T)p.d(T)}|RNA2{r(A)p.r(U)p.r(G)p.r(A)p.r(U)p.r(G)p.r(A)p.r(U)p.r(G)p.r(G)p.r(C)p.r(U)p.r(G)p.r(G)p.r(A)p.r(G)p.r(U)p.r(G)p.r(G)p.d(T)p.d(G)}$$$RNA1{StrandType:ss}|RNA2{StrandType:as}$” yielded a normalised inhibition (eCFP-eYFP dual reporter) of 77.4%. In turn, “RNA1{r(C)p.r(A)p.r(U)p.r(C)p.r(C)p.r(C)p.r(A)p.r(A)p.r(G)p.r(A)p.r(U)p.r(G)p.r(A)p.r(G)p.r(G)p.r(A)p.r(G)p.r(U)p.r(U)p.d(T)p.d(T)}|RNA2{r(A)p.r(A)p.r(C)p.r(U)p.r(C)p.r(C)p.r(U)p.r(C)p.r(A)p.r(U)p.r(C)p.r(U)p.r(U)p.r(G)p.r(G)p.r(G)p.r(A)p.r(U)p.r(G)p.d(A)p.d(G)}$$$RNA1{StrandType:ss}|RNA2{StrandType:as}$” had a normalised inhibition (eCFP-eYFP dual reporter) of 53%.
